Test [1] in a line: Fold resistance calculated by dividing the IC50(L1210/R81) by the IC50(L1210).
Test [2] relates to L1210. Put plainly: Inhibition of L1210 cultured murine leukemia cell growth. Format: functional, cell-based. Particulars: Mus musculus.
Test [3] deals with L1210. Kind of test: Inhibition of L1210/R81 murine leukemia cell growth. Type of test: functional, cell-based. Particulars: Mus musculus.
The target of a further test is T1, Dihydrofolate reductase (Mus musculus, UniProt P00375).
T1 sequence (P00375 whole entry): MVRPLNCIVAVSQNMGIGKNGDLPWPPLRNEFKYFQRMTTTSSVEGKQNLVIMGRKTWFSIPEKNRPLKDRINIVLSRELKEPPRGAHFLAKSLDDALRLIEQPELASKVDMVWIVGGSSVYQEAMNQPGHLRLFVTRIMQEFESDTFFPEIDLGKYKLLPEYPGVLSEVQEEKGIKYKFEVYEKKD

Description for Dihydrofolate reductase: Inhibition of dihydrofolate reductase(DHFR) from L1210/R81 cells

The term IC50 denotes the concentration needed to halve the response being measured. Higher therefore signals weaker potency in that assay. `CN(Cc1cnc2nc(N)nc(N)c2n1)c1ccc(C(=O)N[C@@H](CCC(=O)O)C(=O)O)cc1` [METHOTREXATE]: the Resistance in test [1] was 44000. For the same compound, in the test with L1210 [2], the concentration for half-maximal inhibition (IC50) stood at 5 nM.
Take `CN(Cc1cnc2nc(N)nc(N)c2n1)c1ccc(C(=O)NC(CCCNC(=O)CCl)C(=O)O)cc1` (stereo not drawn): the IC50 in the test on L1210 [3] was found to be 105 nM; in the test with L1210 [2], 62 nM; against Dihydrofolate reductase, 32 nM. For the same compound, the Resistance in test [1] was 1700.
With `CN(Cc1cnc2nc(N)nc(N)c2n1)c1ccc(C(=O)NC(CCCCNC(=O)CCl)C(=O)O)cc1` (stereo not drawn), the IC50 in the test on L1210 [3] came out at 93 nM; in the test with L1210 [2], 33 nM; at Dihydrofolate reductase it was 32 nM. Further, the Resistance in test [1] is 2800.
On the same counts, the results for `CN(Cc1cnc2nc(N)nc(N)c2n1)c1ccc(C(=O)NC(CCCNC(=O)CBr)C(=O)O)cc1` (stereo not drawn) are 155 nM, 126 nM, 46 nM and 1200.
For `CN(Cc1cnc2nc(N)nc(N)c2n1)c1ccc(C(=O)NC(CCCCNC(=O)CBr)C(=O)O)cc1` (stereo not drawn), the values for the IC50 in the test on L1210 [3], with L1210 [2] and against Dihydrofolate reductase were 240 nM, 96 nM and 72 nM, respectively. Further, the Resistance in test [1] was 2500.

The record behind these values is ChEMBL document CHEMBL1123871, “Methotrexate analogues. 30. Dihydrofolate reductase inhibition and in vitro tumor cell growth inhibition by N epsilon-(haloacetyl)-L-lysine and N delta-(haloacetyl)-L-ornithine analogues and an acivicin analogue of methotrexate” (J Med Chem, 1987).
